Source: patent publication US9796711B2, “Substituted pyrazolo[3,4-b]pyridin-6-carboxylic acids and method of use” (AbbVie S.àr.l., priority 2015, dated 2017)

Tests used:
[1] = target: T1, ΔF508-CFTR (Homo sapiens, UniProt P13569, DEL508-508); assay: CFTR cell surface levels using HRP-tagged ΔF508-CFTR expressing CFBE cells, intrinsic corrector capacity; assay type: cell-based; settings: for EC50: read-out: EC50
T1 construct: host or cells: CFBE41o-, doxycycline-inducible
Summary of the method: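 Here the cells express ΔF508-CFTR with horseradish peroxidase inserted in extracellular loop 4, so only rescued channel at the surface gives luminescent signal. Compounds act on their own, 20 h at the reduced temperature of 33 °C; values are percent activity relative to DMSO and a 3 μM corrector.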

[2] = target: T1, ΔF508-CFTR; assay: CFTR cell surface levels using HRP-tagged ΔF508-CFTR expressing CFBE cells, in the presence of a co-corrector; assay type: cell-based; settings: HRP-tagged ΔF508-CFTR expressing CFBE cells, in the presence of 3 μM co-corrector; for EC50: read-out: EC50
Summary of the method: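 Cells were seeded with 0.5 μg/mL doxycycline and held 68 h at 37 °C. Test compounds plus 3 μM co-corrector (final 0.1% DMSO) were then added for 20 h at 33 °C. Washed cells received HRP substrate, and luminescence was normalized between DMSO and 3 μM co-corrector controls.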

[3] = HRP-tagged ΔF508-CFTR CFBE41o- cells, compounds alone (intrinsic corrector capacity), 20 hours at 33° C., positive control 3 μM corrector
[4] = HRP-tagged ΔF508-CFTR CFBE41o- cells, compounds alone (intrinsic corrector capacity), 20 hours at 33° C.
[5] = HRP-tagged ΔF508-CFTR expressing CFBE cells, intrinsic corrector capacity (no co-corrector), 33° C., 20 hours
[6] = HRP-tagged ΔF508-CFTR CFBE cells, compound alone (intrinsic corrector capacity), 20 hours at 33° C.

T1 sequence (P13569 with tags, fused parts or gaps DEL508-508): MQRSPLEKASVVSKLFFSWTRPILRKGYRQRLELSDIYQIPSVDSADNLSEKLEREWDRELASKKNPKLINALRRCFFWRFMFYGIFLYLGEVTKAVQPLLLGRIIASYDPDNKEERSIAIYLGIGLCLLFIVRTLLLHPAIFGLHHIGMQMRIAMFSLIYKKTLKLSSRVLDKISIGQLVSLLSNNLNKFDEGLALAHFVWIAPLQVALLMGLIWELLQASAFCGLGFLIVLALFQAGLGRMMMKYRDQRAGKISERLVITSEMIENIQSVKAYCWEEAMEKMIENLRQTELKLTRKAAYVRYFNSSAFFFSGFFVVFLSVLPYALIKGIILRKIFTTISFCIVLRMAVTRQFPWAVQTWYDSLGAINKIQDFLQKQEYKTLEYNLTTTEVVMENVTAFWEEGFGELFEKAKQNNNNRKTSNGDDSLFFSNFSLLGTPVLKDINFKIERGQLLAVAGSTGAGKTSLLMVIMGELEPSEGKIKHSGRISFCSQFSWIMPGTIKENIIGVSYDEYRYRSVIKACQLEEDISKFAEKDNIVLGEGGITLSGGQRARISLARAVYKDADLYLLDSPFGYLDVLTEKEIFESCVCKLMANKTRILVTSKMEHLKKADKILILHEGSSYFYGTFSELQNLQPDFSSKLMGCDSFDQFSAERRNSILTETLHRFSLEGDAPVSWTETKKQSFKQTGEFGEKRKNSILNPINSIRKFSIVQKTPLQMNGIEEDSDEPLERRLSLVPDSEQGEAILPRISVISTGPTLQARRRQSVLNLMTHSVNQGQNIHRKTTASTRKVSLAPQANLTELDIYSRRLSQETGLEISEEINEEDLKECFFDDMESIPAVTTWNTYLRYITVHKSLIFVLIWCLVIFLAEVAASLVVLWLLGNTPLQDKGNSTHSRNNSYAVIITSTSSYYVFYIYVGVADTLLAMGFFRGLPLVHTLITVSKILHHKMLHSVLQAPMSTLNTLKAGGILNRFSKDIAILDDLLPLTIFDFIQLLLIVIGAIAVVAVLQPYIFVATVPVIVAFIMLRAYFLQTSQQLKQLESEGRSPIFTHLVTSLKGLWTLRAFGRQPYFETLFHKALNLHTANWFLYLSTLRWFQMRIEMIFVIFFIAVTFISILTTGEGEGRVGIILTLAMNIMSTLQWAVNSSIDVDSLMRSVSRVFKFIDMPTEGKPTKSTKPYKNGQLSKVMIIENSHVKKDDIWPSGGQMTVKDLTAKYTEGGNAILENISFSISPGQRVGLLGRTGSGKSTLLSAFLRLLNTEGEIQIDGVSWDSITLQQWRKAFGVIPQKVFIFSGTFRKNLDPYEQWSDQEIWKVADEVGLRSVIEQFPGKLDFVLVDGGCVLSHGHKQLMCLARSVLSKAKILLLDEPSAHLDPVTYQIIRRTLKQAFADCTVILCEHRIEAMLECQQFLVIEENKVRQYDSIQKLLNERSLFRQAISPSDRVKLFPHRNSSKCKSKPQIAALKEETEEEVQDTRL

| SMILES | % Activation [1, 3] | EC50 [1, 4] | % Activation [2] | EC50 [2] | % Activation [1, 5] | EC50 [1, 5] | % Activation [1, 6] | EC50 [1, 6] |
| --- | --- | --- | --- | --- | --- | --- | --- | --- |
| Cc1nn(-c2ccccc2)c2nc(C(=O)O)cc(-c3ccc(N4CC(C)OC(C)C4)cc3)c12 (stereo not shown) [compound 114, 4-[4-(2,6-dimethylmorpholin-4-yl)phenyl]-3-methyl-1-phenyl-1H-pyrazolo[3,4-b]pyridine-6-carboxylic acid] | 251.05% | 806 nM | 460.85% | 1240 nM | – | – | – | – |
| CC(C)c1nn(-c2cccc(F)c2)c2nc(C(=O)O)cc(-c3ccc(N(C)C4CCOCC4)nc3)c12 [compound 283, 1-(3-fluorophenyl)-4-{6-[methyl(oxan-4-yl)amino]pyridin-3-yl}-3-(propan-2-yl)-1H-pyrazolo[3,4-b]pyridine-6-carboxylic acid] | 233.17% | 649 nM | 435.2% | 367 nM | – | – | – | – |
| C[C@H]1C[C@H](c2nn(-c3ccccc3)c3nc(C(=O)O)cc(-c4ccc(N5CCC(C#N)CC5)nc4)c32)C1 [compound 551, 4-[6-(4-cyanopiperidin-1-yl)pyridin-3-yl]-3-(trans-3-methylcyclobutyl)-1-phenyl-1H-pyrazolo[3,4-b]pyridine-6-carboxylic acid] | – | – | 424.35% | 87.2 nM | 223.1% | 370 nM | – | – |
| Cc1cccc(-n2nc(C(C)C)c3c(N4CCC(S(C)(=O)=O)C4)cc(C(=O)O)nc32)c1 (stereo not shown) [compound 272, 4-[3-(methanesulfonyl)pyrrolidin-1-yl]-1-(3-methylphenyl)-3-(propan-2-yl)-1H-pyrazolo[3,4-b]pyridine-6-carboxylic acid] | 135.5% | 3340 nM | 319.6% | 3340 nM | – | – | – | – |
| O=C(O)c1cc(N2CCC(N3CCOCC3)CC2)c2c(C3CCC3)nn(-c3ccc(OC(F)F)cc3)c2n1 [compound 914, 3-cyclobutyl-1-[4-(difluoromethoxy)phenyl]-4-[4-(morpholin-4-yl)piperidin-1-yl]-1H-pyrazolo[3,4-b]pyridine-6-carboxylic acid] | – | – | 429.25% | 173 nM | – | – | 228.2% | 546 nM |
| COC1CN(C2CCN(c3cc(C(=O)O)nc4c3c(C3CCC3)nn4-c3ccc(F)cc3)CC2)C1 [compound 873, 3-cyclobutyl-1-(4-fluorophenyl)-4-[4-(3-methoxyazetidin-1-yl)piperidin-1-yl]-1H-pyrazolo[3,4-b]pyridine-6-carboxylic acid] | – | – | 332.45% | 1850 nM | 139.8% | 3340 nM | – | – |
| Cc1nn(-c2ccccc2)c2nc(C(=O)O)cc(OC[C@H](F)C3CCOCC3)c12 [compound 336, 4-[(2R)-2-fluoro-2-(oxan-4-yl)ethoxy]-3-methyl-1-phenyl-1H-pyrazolo[3,4-b]pyridine-6-carboxylic acid] | 118.2% | 1370 nM | 297.8% | 1320 nM | – | – | – | – |
| Cc1nn(-c2ccccc2)c2nc(C(=O)O)cc(-c3ccc(N4CCC4)cc3)c12 [compound 135, 4-[4-(azetidin-1-yl)phenyl]-3-methyl-1-phenyl-1H-pyrazolo[3,4-b]pyridine-6-carboxylic acid] | 165.1% | 2200 nM | 355.55% | 1460 nM | – | – | – | – |
| CN(C)CC(CN(C)C)Oc1cc(C(=O)O)nc2c1c(C1CCC1)nn2-c1ccccc1 [compound 638, 4-{[1,3-bis(dimethylamino)propan-2-yl]oxy}-3-cyclobutyl-1-phenyl-1H-pyrazolo[3,4-b]pyridine-6-carboxylic acid] | – | – | 175.15% | 6660 nM | 24.93% | > 10000 nM | – | – |
| N#CC1CCN(c2ccc(-c3cc(C(=O)O)nc4c3c(C3CCC3)nn4C3CCCCC3)cc2)CC1 [compound 219, 4-[4-(4-cyanopiperidin-1-yl)phenyl]-3-cyclobutyl-1-cyclohexyl-1H-pyrazolo[3,4-b]pyridine-6-carboxylic acid] | 248.7% | 518 nM | 474.5% | 365 nM | – | – | – | – |
| CC(C)(COc1cc(C(=O)O)nc2c1c(C1CCC1)nn2-c1ccccc1)S(C)(=O)=O [compound 629, 3-cyclobutyl-4-[2-(methanesulfonyl)-2-methylpropoxy]-1-phenyl-1H-pyrazolo[3,4-b]pyridine-6-carboxylic acid] | – | – | 252.2% | 2160 nM | 94.42% | 3330 nM | – | – |
| Cc1nn(-c2ccccc2)c2nc(C(=O)O)cc(-c3ccc(N4CC(F)(F)C4)cc3)c12 [compound 97, 4-[4-(3,3-difluoroazetidin-1-yl)phenyl]-3-methyl-1-phenyl-1H-pyrazolo[3,4-b]pyridine-6-carboxylic acid] | 96.51% | 1530 nM | 268% | 1160 nM | – | – | – | – |
| CO[C@H]1CC[C@H](Oc2cc(C(=O)O)nc3c2c(C2CCC2)nn3-c2ccccc2)CC1 [compound 429, 3-cyclobutyl-4-[(trans-4-methoxycyclohexyl)oxy]-1-phenyl-1H-pyrazolo[3,4-b]pyridine-6-carboxylic acid] | – | – | 268.2% | 370 nM | 114.95% | 979 nM | – | – |
| O=C(O)c1cc(N2CCC(OCC(=O)N3CCCC3)CC2)c2c(C3CCC3)nn(-c3ccccc3)c2n1 [compound 367, 3-cyclobutyl-4-{4-[2-oxo-2-(pyrrolidin-1-yl)ethoxy]piperidin-1-yl}-1-phenyl-1H-pyrazolo[3,4-b]pyridine-6-carboxylic acid] | 239.55% | 1010 nM | 406.35% | 669 nM | – | – | – | – |
| O=C(O)c1cc(OC2CN(C3CCCCC3)C2)c2c(C3CCC3)nn(-c3ccccc3)c2n1 [compound 599, 3-cyclobutyl-4-[(1-cyclohexylazetidin-3-yl)oxy]-1-phenyl-1H-pyrazolo[3,4-b]pyridine-6-carboxylic acid] | – | – | 248.4% | 376 nM | 81.59% | 357 nM | – | – |
| O=C(O)c1cc(N2CCC(N3CCC(F)(F)CC3)CC2)c2c(C3CCC3)nn(-c3ccc(F)cc3)c2n1 [compound 850, 3-cyclobutyl-4-(4,4-difluoro[1,4′-bipiperidin]-1′-yl)-1-(4-fluorophenyl)-1H-pyrazolo[3,4-b]pyridine-6-carboxylic acid] | – | – | 615.6% | 88.9 nM | 234.4% | 74.1 nM | – | – |
| CN1CCC[C@]12C[C@@H](Oc1cc(C(=O)O)nc3c1c(C1CCC1)nn3-c1ccccc1)C2 [compound 645, 3-cyclobutyl-4-{[(2s,4r)-5-methyl-5-azaspiro[3.4]octan-2-yl]oxy}-1-phenyl-1H-pyrazolo[3,4-b]pyridine-6-carboxylic acid] | – | – | 270.05% | 409 nM | 111.55% | 1070 nM | – | – |
| CC(C)c1nn(-c2cccc(N(C)C)c2)c2nc(C(=O)O)cc(-c3ccc(N(C)C4CCOCC4)cc3)c12 [compound 207, 1-[3-(dimethylamino)phenyl]-4-{4-[methyl(oxan-4-yl)amino]phenyl}-3-(propan-2-yl)-1H-pyrazolo[3,4-b]pyridine-6-carboxylic acid] | 384.15% | 581 nM | 674.35% | 380 nM | – | – | – | – |
| CC(C)c1nn(C2CCCOC2)c2nc(C(=O)O)cc(-c3ccc(N4CCC(C#N)CC4)nc3)c12 (stereo not shown) [compound 365, 4-[6-(4-cyanopiperidin-1-yl)pyridin-3-yl]-1-(oxan-3-yl)-3-(propan-2-yl)-1H-pyrazolo[3,4-b]pyridine-6-carboxylic acid] | 147.55% | 2550 nM | 278.05% | 1540 nM | – | – | – | – |
| O=C(O)c1cc(N2CCN(C3CCC3)CC2)c2c(C3CCC3)nn(-c3ccccc3)c2n1 [compound 450, 3-cyclobutyl-4-(4-cyclobutylpiperazin-1-yl)-1-phenyl-1H-pyrazolo[3,4-b]pyridine-6-carboxylic acid] | – | – | 377.1% | 456 nM | 165.85% | 1090 nM | – | – |
| CN1CCC[C@@H](Oc2cc(C(=O)O)nc3c2c(C2CCC2)nn3-c2ccccc2)C1 [compound 496, 3-cyclobutyl-4-{[(3R)-1-methylpiperidin-3-yl]oxy}-1-phenyl-1H-pyrazolo[3,4-b]pyridine-6-carboxylic acid] | – | – | 145.5% | 2130 nM | 32.84% | 3340 nM | – | – |
| CC(=O)N1CCC2CN(c3cc(C(=O)O)nc4c3c(C(C)C)nn4-c3cccc(C)c3)CCC21 (stereo not shown) [compound 255, 4-(1-acetyloctahydro-5H-pyrrolo[3,2-c]pyridin-5-yl)-1-(3-methylphenyl)-3-(propan-2-yl)-1H-pyrazolo[3,4-b]pyridine-6-carboxylic acid] | 120.77% | 442 nM | 302.97% | 294 nM | – | – | – | – |
